In series [1] the target is T1, FesR (Alishewanella sp. WH16-1, UniProt A0A0T5PLD3).
T1 construct: Full-length, no signal peptide predicted, GST-tagged (pGEX-6p-1), eluted with glutathione, expressed in E. coli BL21(DE3); predicted 127 kDa with tag; FAD domain 16-520, two 4Fe-4S clusters 525-625
The series is described as follows: residual Cr(VI) by diphenylcarbazide colorimetry. Format: biochemical. To be noted: 1 mmol/L NADPH, pH 7.0, 50 °C, Tris-HCl, 10 min, no added FAD.

Series [2] has as its target T2, FesR (Alishewanella sp. WH16-1, UniProt A0A0T5PLD3, R385A).
T2 construct: gene AAY72_06850; Full-length, no signal peptide predicted, GST-tagged (pGEX-6p-1), eluted with glutathione, expressed in E. coli BL21(DE3); predicted 127 kDa with tag; FAD domain 16-520, two 4Fe-4S clusters 525-625
T2 sequence (A0A0T5PLD3 1-919 R385A): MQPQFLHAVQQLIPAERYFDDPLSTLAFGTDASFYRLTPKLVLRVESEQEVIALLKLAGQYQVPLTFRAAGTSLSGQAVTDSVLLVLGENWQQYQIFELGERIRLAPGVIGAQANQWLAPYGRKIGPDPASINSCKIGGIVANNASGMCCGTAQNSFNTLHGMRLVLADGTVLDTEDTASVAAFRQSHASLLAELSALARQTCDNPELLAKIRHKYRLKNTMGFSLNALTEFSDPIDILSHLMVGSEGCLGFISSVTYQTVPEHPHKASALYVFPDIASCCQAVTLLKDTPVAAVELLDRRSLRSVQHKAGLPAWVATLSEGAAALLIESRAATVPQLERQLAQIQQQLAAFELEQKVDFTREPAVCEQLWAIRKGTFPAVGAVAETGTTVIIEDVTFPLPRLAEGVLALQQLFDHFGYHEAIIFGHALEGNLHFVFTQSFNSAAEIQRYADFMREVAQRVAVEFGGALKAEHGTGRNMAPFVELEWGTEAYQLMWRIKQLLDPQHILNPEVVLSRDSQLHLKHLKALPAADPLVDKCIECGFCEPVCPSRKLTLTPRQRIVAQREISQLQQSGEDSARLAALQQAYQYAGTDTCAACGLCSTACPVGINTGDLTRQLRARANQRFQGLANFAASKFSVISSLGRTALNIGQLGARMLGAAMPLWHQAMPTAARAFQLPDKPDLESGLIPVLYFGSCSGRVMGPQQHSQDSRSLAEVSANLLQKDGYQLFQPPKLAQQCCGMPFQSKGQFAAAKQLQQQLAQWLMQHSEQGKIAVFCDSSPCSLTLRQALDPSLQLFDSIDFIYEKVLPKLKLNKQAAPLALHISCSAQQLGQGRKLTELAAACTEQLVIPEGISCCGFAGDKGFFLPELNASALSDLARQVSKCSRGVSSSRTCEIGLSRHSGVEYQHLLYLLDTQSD
In words: enhancement of Cr(VI) and Se(IV) reduction by added FAD. Format: biochemical. To be noted: […] FAD, […] NADPH, […] K2CrO4 or Na2SeO3, optimum pH and temperature (pH […] °C).

In the next series the test system is O=[Se](O)O. The series is described as follows: purified protein. To be noted: 1 mmol/L NADPH, pH 7.0, 50 °C, Tris-HCl, 10 min, no added FAD.

`[O]=[Cr](=[O])([OH])[OH]` [Cr(VI)]: at FesR [1], the Km (usually the concentration of substrate that gives half-maximal velocity) is 1680 ± 126 µM.

On to `Cc1cc2nc3c(=O)[nH]c(=O)nc-3n(C[C@H](O)[C@H](O)[C@H](O)COP(=O)(O)OP(=O)(O)OC[C@H]3O[C@@H](n4cnc5c(N)ncnc54)[C@H](O)[C@@H]3O)c2cc1C` [FAD], for which the “enhancement of Cr(VI) and Se(IV) reduction by added FAD” value at FesR [2] is recorded as “FAD couldn’t enhance the enzyme activity of FesR when the predicted FAD-binding residue Arg385 was mutated”.

Turning to FesR (Alishewanella sp. WH16-1), the Km in the series with O=[Se](O)O is 1164.0 ± 89.4 µM.

Source of the values: paper PMC8957926, “Identification of a Novel Chromate and Selenite Reductase FesR in Alishewanella sp. WH16-1” (Frontiers in Microbiology, 2022).
